Laboratory results: PMC6494078, “Development of an HPLC-based guanosine monophosphate kinase assay and application to Plasmodium vivax guanylate kinase” (Analytical Biochemistry, 2019)
Blank lines part the entries; values can stand above or below the compound they belong to.

Key:
Format in all cases: biochemical
[1] = molecular target: T1, Plasmodium vivax guanylate kinase (PvGK) (Plasmodium vivax, UniProt A5K709); assay: HPLC guanylate kinase assay, ATP saturation curve (sigmoidal, h = […]; apparent Kprime)
T1 construct: gene PVX_099895; full-length PvGK with an N-terminal hexa-histidine tag
T1 sequence (A5K709 entry or part of it): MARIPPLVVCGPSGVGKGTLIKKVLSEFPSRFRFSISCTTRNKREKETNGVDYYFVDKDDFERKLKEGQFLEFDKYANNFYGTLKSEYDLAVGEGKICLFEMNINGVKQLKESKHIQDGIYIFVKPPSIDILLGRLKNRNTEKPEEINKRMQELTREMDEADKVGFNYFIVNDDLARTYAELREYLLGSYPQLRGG

[2] = molecular target: T1, Plasmodium vivax guanylate kinase (PvGK); assay: HPLC detection of product formed by purified enzyme
[3] = molecular target: T1, Plasmodium vivax guanylate kinase (PvGK); assay: HPLC guanylate kinase assay, GMP saturation curve (substrate inhibition)
[4] = molecular target: T1, Plasmodium vivax guanylate kinase (PvGK); assay: HPLC guanylate kinase inhibition assay, percent inhibition at […]; conditions: read-out: % inhibition at 5 mM
[5] = molecular target: T1, Plasmodium vivax guanylate kinase (PvGK); assay: HPLC guanylate kinase inhibition assay, IC50 curve

Structure (SMILES): Nc1ncnc2c1ncn2[C@@H]1O[C@H](COP(=O)(O)OP(=O)(O)OP(=O)(O)O)[C@@H](O)[C@H]1O [ATP]
Km [1]: 15.6 ± 2.07 µM

Structure (SMILES): Nc1nc2c(ncn2[C@@H]2O[C@H](COP(=O)(O)OP(=O)(O)O)[C@@H](O)[C@H]2O)c(=O)[nH]1 [GDP]
HPLC detection of product formed by purified enzyme [2]: used to study the kinetics of the forward reaction (forming ADP and GDP) catalyzed by PvGK

Structure (SMILES): Nc1nc(=O)c2ncn([C@@H]3O[C@H](COP(=O)(O)O)[C@@H](O)[C@H]3O)c2[nH]1 [GMP]
HPLC guanylate kinase assay, GMP saturation curve (substrate inhibition) [3]: showed a decrease in initial velocity with increasing GMP concentrations, indicating strong substrate inhibition

Structure (SMILES): O=c1ccc2ccc(O)c(O)c2o1 [compound 1, 7,8-dihydroxycoumarin]
inhibition at 5000 µM [4]: 68%

IC50 [5]: 2700 µM
Structure (SMILES): O=C(O)C1CSC2(C(=O)O)CCC(=O)N12 (centres unmarked) [compound 2, Compound 2]
